Results taken from US20240002425A1, “NOVEL AMINOALKYL GLUCOSAMINIDE 4-PHOSPHATE DERIVATIVE” (DAIICHI SANKYO COMPANY, LIMITED, priority 2020, published 2024).

Test system: binding between RBD and hACE2
Conditions: in vivo

## CCCCCCCCCCC[C@H](CC(=O)N[C@@H](CO[C@@H]1O[C@H](CO[C@]2(C(=O)O)C[C@@H](O)[C@@H](O)[C@@H]([C@H](O)CO)O2)[C@@H](OP(=O)(O)O)[C@H](OC(=O)C[C@@H](CCCCCCCCCCC)OC(=O)CCCCCCCCC)[C@H]1NC(=O)C[C@@H](CCCCCCCCCCC)OC(=O)CCCCCCCCC)CC(=O)O)OC(=O)CCCCCCCCC [Example 2(2e), Ammonium (3R)-3-{[(3R)-3-(decanoyloxy)tetradecanoyl]amino}-4-({3-O-[(3R)-3-(decanoyloxy)tetradecanoyl]-2-{[(3R)-3-(decanoyloxy)tetradecanoyl]amino}-2-deoxy-6-O-(3-deoxy-α-D-manno-oct-2-ulopyranonosyl)-4-O-phosphono-β-D-glucopyranosyl}oxy)butanoate]
  inhibition of binding between RBD and hACE2 by nasal wash: inhibited the binding between RBD and hACE2
